# Reference: ChEMBL document CHEMBL1629583, “Establishment of in vitro susceptibility testing methodologies and comparative activities of piperacillin in combination with the penem {beta}-lactamase inhibitor BLI-489” (2009)
# How the values were obtained:
# Type in all cases: functional
# Clostridium perfringens = assay: Antimicrobial activity against Clostridium perfringens clinical isolate after 18 to 22 hrs by broth microdilution method
# [1] = system: Bacteroides thetaiotaomicron; assay: Antimicrobial activity against Bacteroides thetaiotaomicron clinical isolate after 18 to 22 hrs by broth microdilution method
# Parvimonas micra = assay: Antimicrobial activity against Peptostreptococcus micros clinical isolate after 18 to 22 hrs by broth microdilution method
# Bacteroides uniformis = assay: Antimicrobial activity against Bacteroides uniformis clinical isolate after 18 to 22 hrs by broth microdilution method
# [2] = system: Peptostreptococcus anaerobius; assay: Antimicrobial activity against Peptostreptococcus anaerobius clinical isolate after 18 to 22 hrs by broth microdilution method
# Bacteroides fragilis = assay: Antimicrobial activity against Bacteroides fragilis clinical isolate after 18 to 22 hrs by broth microdilution method
# Providencia stuartii = assay: Antimicrobial activity against Providencia stuartii clinical isolate after 18 to 22 hrs by broth microdilution method
# Escherichia coli [3] = assay: Antimicrobial activity against class A extended spectrum beta-lactamase- and class D OXA- producing Escherichia coli clinical isolate after 18 to 22 hrs by broth microdilution method
# Klebsiella aerogenes [4] = assay: Antimicrobial activity against AmpC beta-lactamase-producing Enterobacter aerogenes clinical isolate after 18 to 22 hrs by broth microdilution method
# Pseudomonas aeruginosa = assay: Antimicrobial activity against Pseudomonas aeruginosa clinical isolate after 18 to 22 hrs by broth microdilution method
# [5] = system: Haemophilus parainfluenzae; assay: Antimicrobial activity against Haemophilus parainfluenzae clinical isolate after 18 to 22 hrs by broth microdilution method
# Serratia marcescens [6] = assay: Antimicrobial activity against AmpC beta-lactamase-producing Serratia marcescens clinical isolate after 18 to 22 hrs by broth microdilution method
# Enterobacter cloacae [7] = assay: Antimicrobial activity against AmpC beta-lactamase-producing Enterobacter cloacae clinical isolate after 18 to 22 hrs by broth microdilution method
# Acinetobacter lwoffii = assay: Antimicrobial activity against Acinetobacter lwoffii clinical isolate after 18 to 22 hrs by broth microdilution method
# Burkholderia cepacia = assay: Antimicrobial activity against Burkholderia cepacia clinical isolate after 18 to 22 hrs by broth microdilution method
# Klebsiella aerogenes [8] = assay: Antimicrobial activity against Enterobacter aerogenes clinical isolate after 18 to 22 hrs by broth microdilution method
# Haemophilus influenzae [9] = assay: Antimicrobial activity against beta-lactamase-negative Haemophilus influenzae clinical isolate after 18 to 22 hrs by broth microdilution method
# Klebsiella pneumoniae [10] = assay: Antimicrobial activity against class A extended spectrum beta-lactamase- and class D OXA- producing Klebsiella pneumoniae clinical isolate after 18 to 22 hrs by broth microdilution method
# Proteus vulgaris = assay: Antimicrobial activity against Proteus vulgaris clinical isolate after 18 to 22 hrs by broth microdilution method
# Acinetobacter johnsonii = assay: Antimicrobial activity against Acinetobacter johnsonii clinical isolate after 18 to 22 hrs by broth microdilution method
# Haemophilus influenzae [11] = assay: Antimicrobial activity against beta-lactamase-producing Haemophilus influenzae clinical isolate after 18 to 22 hrs by broth microdilution method
# Enterobacter cloacae [12] = assay: Antimicrobial activity against Enterobacter cloacae clinical isolate after 18 to 22 hrs by broth microdilution method
# [13] = system: Acinetobacter calcoaceticus; assay: Antimicrobial activity against Acinetobacter calcoaceticus clinical isolate after 18 to 22 hrs by broth microdilution method
# Morganella morganii = assay: Antimicrobial activity against Morganella morganii clinical isolate after 18 to 22 hrs by broth microdilution method
# Citrobacter koseri = assay: Antimicrobial activity against Citrobacter koseri clinical isolate after 18 to 22 hrs by broth microdilution method
# [14] = system: Stenotrophomonas maltophilia; assay: Antimicrobial activity against Stenotrophomonas maltophilia clinical isolate after 18 to 22 hrs by broth microdilution method
# Klebsiella pneumoniae [15] = assay: Antimicrobial activity against Klebsiella pneumoniae clinical isolate after 18 to 22 hrs by broth microdilution method
# [16] = system: Acinetobacter haemolyticus; assay: Antimicrobial activity against Acinetobacter haemolyticus clinical isolate after 18 to 22 hrs by broth microdilution method
# Citrobacter freundii [17] = assay: Antimicrobial activity against AmpC beta-lactamase-producing Citrobacter freundii clinical isolate after 18 to 22 hrs by broth microdilution method
# Citrobacter freundii [18] = assay: Antimicrobial activity against Citrobacter freundii clinical isolate after 18 to 22 hrs by broth microdilution method
# Escherichia coli [19] = assay: Antimicrobial activity against AmpC beta-lactamase-producing Escherichia coli clinical isolate after 18 to 22 hrs by broth microdilution method
# Acinetobacter baumannii = assay: Antimicrobial activity against Acinetobacter baumannii clinical isolate after 18 to 22 hrs by broth microdilution method
# Proteus mirabilis = assay: Antimicrobial activity against Proteus mirabilis clinical isolate after 18 to 22 hrs by broth microdilution method
# Acinetobacter junii = assay: Antimicrobial activity against Acinetobacter junii clinical isolate after 18 to 22 hrs by broth microdilution method
# Klebsiella pneumoniae [20] = assay: Antimicrobial activity against class A extended spectrum beta-lactamase- producing Klebsiella pneumoniae clinical isolate after 18 to 22 hrs by broth microdilution method
# Providencia rettgeri = assay: Antimicrobial activity against Providencia rettgeri clinical isolate after 18 to 22 hrs by broth microdilution method
# Escherichia coli [21] = assay: Antimicrobial activity against class A extended spectrum beta-lactamase- producing Escherichia coli clinical isolate after 18 to 22 hrs by broth microdilution method
# Klebsiella oxytoca = assay: Antimicrobial activity against Klebsiella oxytoca clinical isolate after 18 to 22 hrs by broth microdilution method
# Klebsiella pneumoniae [22] = assay: Antimicrobial activity against AmpC- producing Klebsiella pneumoniae clinical isolate after 18 to 22 hrs by broth microdilution method
# Moraxella catarrhalis = assay: Antimicrobial activity against Moraxella catarrhalis clinical isolate after 18 to 22 hrs by broth microdilution method
# Serratia marcescens [23] = assay: Antimicrobial activity against Serratia marcescens clinical isolate after 18 to 22 hrs by broth microdilution method
compound,measurement,setting,value
CO[C@@]1(NC(=O)Cc2cccs2)C(=O)N2C(C(=O)O)=C(COC(N)=O)CS[C@@H]21 [CEFOXITIN],MIC50,Clostridium perfringens,1 mg/L
same,MIC90,Clostridium perfringens,2 mg/L
same,MIC,[1],16 mg/L
same,MIC50,[1],16 mg/L
same,MIC90,[1],32 mg/L
same,MIC50,Parvimonas micra,0.5 mg/L
same,MIC90,Parvimonas micra,0.5 mg/L
same,MIC50,Bacteroides uniformis,16 mg/L
same,MIC90,Bacteroides uniformis,16 mg/L
same,MIC50,[2],0.25 mg/L
same,MIC90,[2],1 mg/L
same,MIC50,Bacteroides fragilis,8 mg/L
same,MIC90,Bacteroides fragilis,16 mg/L
C[C@@H](O)[C@H]1C(=O)N2C(C(=O)O)=C(SCCNC=N)C[C@H]12 [IMIPENEM ANHYDROUS],MIC50,Providencia stuartii,2 mg/L
same,MIC90,Providencia stuartii,2 mg/L
same,MIC,Escherichia coli [3],0.12 mg/L
same,MIC50,Escherichia coli [3],0.12 mg/L
same,MIC90,Escherichia coli [3],0.25 mg/L
same,MIC,Klebsiella aerogenes [4],0.5 mg/L
same,MIC50,Klebsiella aerogenes [4],0.5 mg/L
same,MIC90,Klebsiella aerogenes [4],2 mg/L
same,MIC50,Pseudomonas aeruginosa,2 mg/L
same,MIC90,Pseudomonas aeruginosa,32 mg/L
same,MIC50,[5],0.25 mg/L
same,MIC90,[5],0.5 mg/L
same,MIC,Serratia marcescens [6],0.5 mg/L
same,MIC50,Serratia marcescens [6],0.5 mg/L
same,MIC90,Serratia marcescens [6],2 mg/L
same,MIC50,Clostridium perfringens,0.06 mg/L
same,MIC90,Clostridium perfringens,0.06 mg/L
same,MIC,Enterobacter cloacae [7],0.5 mg/L
same,MIC50,Enterobacter cloacae [7],0.5 mg/L
same,MIC90,Enterobacter cloacae [7],2 mg/L
same,MIC50,Acinetobacter lwoffii,0.06 mg/L
same,MIC90,Acinetobacter lwoffii,0.5 mg/L
same,MIC50,Burkholderia cepacia,8 mg/L
same,MIC90,Burkholderia cepacia,16 mg/L
same,MIC,[1],0.25 mg/L
same,MIC50,[1],0.25 mg/L
same,MIC90,[1],1 mg/L
same,MIC50,Klebsiella aerogenes [8],1 mg/L
same,MIC90,Klebsiella aerogenes [8],2 mg/L
same,MIC,Haemophilus influenzae [9],0.12 mg/L
same,MIC50,Haemophilus influenzae [9],0.05 mg/L
same,MIC90,Haemophilus influenzae [9],1 mg/L
same,MIC50,Klebsiella pneumoniae [10],0.25 mg/L
same,MIC90,Klebsiella pneumoniae [10],0.5 mg/L
same,MIC50,Proteus vulgaris,2 mg/L
same,MIC90,Proteus vulgaris,4 mg/L
same,MIC50,Acinetobacter johnsonii,0.06 mg/L
same,MIC90,Acinetobacter johnsonii,0.5 mg/L
same,MIC50,Haemophilus influenzae [11],0.5 mg/L
same,MIC90,Haemophilus influenzae [11],0.5 mg/L
same,MIC50,Enterobacter cloacae [12],0.5 mg/L
same,MIC90,Enterobacter cloacae [12],1 mg/L
same,MIC50,[13],1 mg/L
same,MIC90,[13],32 mg/L
same,MIC50,Morganella morganii,4 mg/L
same,MIC90,Morganella morganii,4 mg/L
same,MIC50,Citrobacter koseri,0.12 mg/L
same,MIC90,Citrobacter koseri,0.12 mg/L
same,MIC,[14],> 32 mg/L
same,MIC50,[14],> 32 mg/L
same,MIC90,[14],> 32 mg/L
same,MIC50,Klebsiella pneumoniae [15],0.25 mg/L
same,MIC90,Klebsiella pneumoniae [15],0.5 mg/L
same,MIC50,[16],0.06 mg/L
same,MIC90,[16],0.5 mg/L
same,MIC,Citrobacter freundii [17],0.5 mg/L
same,MIC50,Citrobacter freundii [17],0.5 mg/L
same,MIC90,Citrobacter freundii [17],2 mg/L
same,MIC50,Parvimonas micra,0.06 mg/L
same,MIC90,Parvimonas micra,0.12 mg/L
same,MIC,Bacteroides uniformis,0.12 mg/L
same,MIC50,Bacteroides uniformis,0.12 mg/L
same,MIC90,Bacteroides uniformis,0.25 mg/L
same,MIC50,Citrobacter freundii [18],1 mg/L
same,MIC90,Citrobacter freundii [18],1 mg/L
same,MIC,Escherichia coli [19],0.12 mg/L
same,MIC50,Escherichia coli [19],0.12 mg/L
same,MIC90,Escherichia coli [19],0.25 mg/L
same,MIC50,Acinetobacter baumannii,1 mg/L
same,MIC90,Acinetobacter baumannii,32 mg/L
same,MIC50,Proteus mirabilis,2 mg/L
same,MIC90,Proteus mirabilis,4 mg/L
same,MIC50,Acinetobacter junii,0.06 mg/L
same,MIC90,Acinetobacter junii,0.5 mg/L
same,MIC50,Klebsiella pneumoniae [20],0.25 mg/L
same,MIC90,Klebsiella pneumoniae [20],0.5 mg/L
same,MIC50,Providencia rettgeri,2 mg/L
same,MIC90,Providencia rettgeri,2 mg/L
same,MIC50,[2],0.03 mg/L
same,MIC90,[2],0.06 mg/L
same,MIC50,Bacteroides fragilis,0.25 mg/L
same,MIC90,Bacteroides fragilis,0.5 mg/L
same,MIC,Escherichia coli [21],0.12 mg/L
same,MIC50,Escherichia coli [21],0.12 mg/L
same,MIC90,Escherichia coli [21],0.5 mg/L
same,MIC50,Klebsiella oxytoca,0.25 mg/L
same,MIC90,Klebsiella oxytoca,0.5 mg/L
same,MIC50,Klebsiella pneumoniae [22],1 mg/L
same,MIC90,Klebsiella pneumoniae [22],16 mg/L
same,MIC,Moraxella catarrhalis,≤ 0.03 mg/L
same,MIC50,Moraxella catarrhalis,≤ 0.03 mg/L
same,MIC90,Moraxella catarrhalis,0.06 mg/L
same,MIC50,Serratia marcescens [23],1 mg/L
same,MIC90,Serratia marcescens [23],2 mg/L
